From patent US12590108B2, “Boracic acid compound” (Phaeno Therapeutics Co., Ltd, priority 2020, dated 2026)
Like-named read-outs stand apart in the source and are kept apart here.

Experiments:
[1] = test system: Escherichia coli ARLG-2829 (NDM-5, OXA-1); test: MIC shift, liquid microdilution, meropenem fixed at 4 μg/mL; assay type: cell-based
Protocol: (§1) The test compound was tested for minimum inhibitory concentration against three strains of Klebsiella pneumoniae ATCC BAA-1705 (KPC-2), ATCC BAA-2470 (NDM-1), and ARLG-1196 (CTM-1 group, SHV, NDM, TEM), and one strain of Escherichia coli ARLG-2829 (NDM-5, OXA-1). According to the requirements of the Institute of Clinical And Laboratory Standard (CLSI), the minimum inhibitory concentration (MIC) of each drug combination was determined by liquid microdilution method under the premise of fixing the concentration of meropenem at 4 μg/mL.
(§2) Preparation of compound mother plate: On the day of the experiment, the compound to be tested (the final concentration was 0.3125 to 20 μg/mL) and meropenem (the final concentration ranged from 1 to 64 μg/mL) were dissolved in a corresponding solvent (sterile ddH2O or DMSO) to form 100× mother liquors with the highest test concentration, and the compound to be tested and meropenem were then subjected to 2-fold series gradient dilution in a V-bottom 96-well plate to obtain 100× working solutions with the final concentration.
(§3) Preparation of inoculation solution: Fresh bacterial clones were picked from an overnight Mueller Hinton II Agar medium (MHA, Cat. No. 211438, BD BBLTM) plate, suspended in sterilized physiological saline, and adjusted to a concentration of 1×10^8 CFU/mL, and the suspension was further diluted to 5-10^5 CFU/mL with Cation-Adjusted Mueller Hinton II Broth (MHB, Catalog #212332, BD BBLTM).
(§4) Detection of minimum inhibitory concentration (MIC): 1 μL of the compound to be tested and the meropenem working solution were transferred to the corresponding wells to be tested in a round-bottomed 96-well plate (Catalog #3788, Corning), and 98 μL of the inoculation solution was added to the round-bottomed 96-well plate containing drugs, which was an MIC test plate; and after the plate was inverted and cultured at 37° C. for 20-24 h, the MIC value was read, and the minimum inhibitory concentration for inhibiting bacterial growth was defined as MIC.

[2] = test system: Klebsiella pneumoniae ATCC BAA-2470 (NDM-1); test: as above; assay type: cell-based; details: K. pneumoniae ATCC BAA-2470, NDM-1
Protocol: as §1, §2, §3, §4

[3] = test system: Klebsiella pneumoniae ATCC BAA-1705 (KPC-2); test: as above; assay type: cell-based; details: K. pneumoniae ATCC BAA-1705, KPC-2
Protocol: as §1, §2, §3, §4

[4] = test system: Klebsiella pneumoniae ARLG-1196 (CTM-1 group, SHV, NDM, TEM); test: as above; assay type: cell-based
Protocol: as §1, §2, §3, §4

[5] = test system: Klebsiella pneumoniae ATCC BAA-1705; test: Mouse lung infection model, bacterial load; assay type: in vivo, CD-1 female mice; details: endpoint 12 h
Protocol: 36 CD-1 female mice were divided into 12 cages with 3 […] in each cage. The day of infection was denoted as day 0.
Immunosuppressant cyclophosphamide at 150 mg/kg was injected intraperitoneally on day −4 and immunosuppressant cyclophosphamide at 100 mg/kg was injected intraperitoneally on day −1 to induce immunodeficient mice.
On day −1, the strain Klebsiella pneumoniae ATCC BAA-1705 was resuscitated on an MHA plate. Resuscitated colonies were picked and dissolved in sterile physiological saline to prepare a bacterial solution with a concentration of 2.75E+08 CFU/mL for lung infection by nasal drip. The initial time of infection was denoted as 0 h, and 50 μL of the bacterial solution was injected into each mouse by nasal drip at 0 h, that is, the inoculation amount was 1.38E+07 CFU/mouse. 2 h after infection, dosing was performed according to the experimental scheme. The specific experimental scheme was as follows (see Table 6): • (1) 2 h after infection: for the 1st cage of mice, at the endpoint, lung tissue was taken and placed in 10 mL of sterile physiological saline, the tissue was homogenized by a homogenizer, and the homogenate was diluted in a gradient and spotted in a plate, with two replicates for each mouse. • (2) 2 h after infection: the 2nd to 12th cages were respectively treated at 10 mL/kg by volume according to the body weight of the mice, the 2nd cage of mice were given a vehicle by intravenous injection every 2 h, and the endpoint was 12 h; the 3rd cage of mice were given 100 mg/kg of meropenem by intravenous injection every 2 h, and the endpoint was 12 h; the 4th cage of mice were given 100 mg/kg of meropenem and 20 mg/kg of QPX7728 by intravenous injection every 2 h, and the endpoint was 12 h; the 5th cage of mice were given 100 mg/kg of meropenem and 100 mg/kg of compound 15 by intravenous injection every 2 h, and the endpoint was 12 h; the 6th cage of mice were given 100 mg/kg of meropenem and 20 mg/kg of compound 15 by intravenous injection every 2 h, and the endpoint was 12 h; the 7th cage of mice were given 100 mg/kg of meropenem and 4 mg/kg of compound 15 by intravenous injection every 2 h, and the endpoint was 12 h; the 8th cage of mice were given 100 mg/kg of cefepime by intravenous injection every 2 h, and the endpoint was 12 h; the 9th cage of mice were given 100 mg/kg of cefepime and 20 mg/kg of QPX7728 by intravenous injection every 2 h, and the endpoint was 12 h; the 10th cage of mice were given 100 mg/kg of cefepime and 100 mg/kg of compound 15 by intravenous injection every 2 h, and the endpoint was 12 h: the 11th cage of mice were given 100 mg/kg of cefepime and 20 mg/kg of compound 15 by intravenous injection every 2 h, and the endpoint was 12 h; and the 12th cage of mice were given 100 mg/kg of cefepime and 4 mg/kg of compound 15 by intravenous injection every 2 h, and the endpoint was 12 h. At the endpoint, lung tissue was taken and placed in 10 mL of sterile physiological saline, the tissue was homogenized by a homogenizer, and the homogenate was diluted in a gradient and spotted in a plate, with two replicates for each mouse. The bacterial load in the lung tissue of the mice was counted, and the experiment was summarized as follows (see Table 7): […]

[6] = compound + meropenem fixed at 4 μg/mL

Row | SMILES | MIC ([1]; compound + meropenem fixed at 4 μg/mL, E. coli ARLG-2829 (urine clinical isolate), NDM-5, OXA-1) | MIC [2, 6] | MIC [3, 6] | MIC ([4]; compound + meropenem fixed at 4 μg/mL, K. pneumoniae ARLG-1196, CTM-1 and isoforms thereof, SHV, NDM, TEM) | Average CFU in mice (lung tissue) ([5]; cefepime 100 mg/kg + inhibitor 4 mg/kg i.v. q2h) | Average CFU in mice (lung tissue) ([5]; cefepime 100 mg/kg + inhibitor 20 mg/kg i.v. q2h) | Average CFU in mice (lung tissue) ([5]; cefepime 100 mg/kg + inhibitor 100 mg/kg i.v. q2h) | Average CFU in mice (lung tissue) ([5]; meropenem 100 mg/kg + inhibitor 4 mg/kg i.v. q2h) | Average CFU in mice (lung tissue) ([5]; meropenem 100 mg/kg + inhibitor 20 mg/kg i.v. q2h) | Average CFU in mice (lung tissue) ([5]; meropenem 100 mg/kg + inhibitor 100 mg/kg i.v. q2h) | MIC ([1]; Escherichia coli, meropenem alone, E. coli ARLG-2829, read-out: MIC) | MIC ([2]; Klebsiella pneumoniae, ATCCBAA2470, meropenem alone, read-out: MIC) | MIC ([3]; Klebsiella pneumoniae, ATCCBAA1705, meropenem alone, read-out: MIC) | MIC ([4]; Klebsiella pneumoniae, meropenem alone, K. pneumoniae ARLG-1196, read-out: MIC) | Average CFU in mice (lung tissue) ([5]; antibiotic alone 100 mg/kg i.v. q2h)
1 | CCOc1ccc2c(c1C(=O)O)O[B-](O)(O)CO2 [Compound 15] | 1.25 µg/mL | 0.625 µg/mL | ≤0.3125 µg/mL | 0.625 µg/mL | 2.38E+06 CFU/mouse | 3.73E+05 CFU/mouse | 1.84E+05 CFU/mouse | 6.83E+07 CFU/mouse | 6.04E+06 CFU/mouse | 7.67E+05 CFU/mouse |  |  |  |  | 
2 | C[C@@H](O)[C@H]1C(=O)N2C(C(=O)O)=C(S[C@@H]3CN[C@H](C(=O)N(C)C)C3)[C@H](C)[C@H]12 [Meropenem, meropenem, reference compound] |  |  |  |  |  |  |  |  |  |  | > 64 µg/mL | 64 µg/mL | 32 µg/mL | 64 µg/mL | 2.73E+08 CFU/mouse
